US8633251B2, “Derivatives of aminoalkanols, method of obtaining of aminoalkanols and their use” (Uniwersytet Jagiellonski, priority 2008, dated 2014)

How the values were obtained:
neurotoxicity (rotarod) = test: Neurotoxicity test (TOX), rotarod, mice; format: in vivo
Experimental: (§1) In order to define anticonvulsant activity, screening tests were performed, using animal models of seizures. […] Each substance (after dissolving in methylcellulose) was normally tested in doses 30, 100, and 300 mg/kg body weight (b.w.) (mice) or in 30 and 50 mg/kg b.w. (rats) in two possible routes of administration: intraperitoneal (i.p.) or oral (p.o.). Appropriate tests were performed 0.5 and 4 h after administration of the compound. […] (mice) the tests were also performed in doses 10 and 3 mg/kg b.w.
It is performed with use of rotarod test. The animal is placed on a plastic rod (1 inch in diameter), rotating 6 rpm. The rod is placed on a level discouraging the animal to jump off. […] Neurotoxicity is stated if the animal cannot stay on the rod for 1 min. in any of 3 trials. Normally the test is performed in dose 30 mg/kg b.w. in 4 mice (0.5 h) and in 2 mice (4 h), in the dose 100 mg/kg b.w. in 8 mice (0.5 h) and in 4 mice (4 h) and in the dose 300 mg/kg b.w. in 4 mice (0.5 h) and 2 mice (4 h).

[1] = tested on: maximal electroshock seizures; test: Maximum Electroshock Seizure (MES) test, mice; format: in vivo; details: mice, time 0.5 h
Experimental: as §1
Maximum Electroshock Seizure (MES) test is an electric test, verifying activity towards generalized tonic-clonic seizures (grand mal epilepsy). […] Its procedure consists in administration to an animal a mentioned dose, and after 0.5 or 4 h attaching corneal electrodes (after anesthetic eye-drops: 0.5% tetracaine hydrochloride in 0.9% NaCl) and turning on electric current (60 Hz, 0.2 s, 50 mA (mice) or 150 mA (rats)). […] Normally, in the dose 30 mg/kg b.w. the test is done in 1 mouse after 0.5 or 4 h, in the dose 100 mg/kg b.w.—in 3 mice, and in the dose 300 mg/kg b.w.—in 1 mouse.

[2] = mice, dose 300 mg/kg b.w., 0.5 h
[3] = mice, dose 100 mg/kg b.w., time 0.5 h
[4] = mice, dose 300 mg/kg b.w., time 0.5 h

Structure (SMILES)	TOX, No. of animals exhibiting motor impairment/no. of used animals (neurotoxicity (rotarod); [2])	MES, No. of protected animals/No. of used animals ([1]; dose 100 mg/kg b.w.)	TOX, No. of animals exhibiting motor impairment/no. of used animals (neurotoxicity (rotarod); [3])	TOX, No. of animals exhibiting motor impairment/no. of used animals (neurotoxicity (rotarod); [4])	also measured
CCC(NC(=O)COc1c(C)cccc1Cl)C(N)=O (racemic) [Compound 78, D,L-2N-[(2-chlor-6-methylphenoxy)acetyl]aminobutyramide]	1/4	–	–	–	–
Cc1cccc(C)c1OCCN[C@@H]1CCCC[C@H]1O (relative stereo) [Compound 18, D,L-trans-2N-[(2,6-dimethylphenoxy)ethyl]amino-1-cyclohexanol]	–	3/3	7/8	4/4	–
Cc1cccc(Cl)c1OCCN[C@@H]1CCCC[C@H]1O (relative stereo) [Compound 30, D,L-trans-2N-[(2-chlor-6-methylphenoxy)ethyl]amino-1-cyclohexanol]	–	1/1	8/8	4/4	MES, No. of protected animals/No. of used animals ([1]; dose 30 mg/kg b.w.): 1/1
Cc1cc(C)c(OCCN[C@@H]2CCCC[C@H]2O)c(C)c1 (relative stereo) [Compound 44, D,L-trans-2N-[(2,4,6-trimethylphenoxy)ethyl]amino-1-cyclohexanol]	–	–	8/8	–	MES, No. of protected animals/No. of used animals ([1]; dose 10 mg/kg b.w.): 1/4; MES, No. of protected animals/No. of used animals ([1]; dose 30 mg/kg b.w.): 1/1; TOX, No. of animals exhibiting motor impairment/no. of used animals (neurotoxicity (rotarod); mice, dose 10 mg/kg b.w., time 0.5 h): 1/4
CCC(CO)NCCOc1cccc(C)c1C (centres unmarked) [Compound 2, R,S-2N-[(2,3-dimethylphenoxy)ethyl]amino-1-butanol]	–	3/3	–	–	TOX, No. of animals exhibiting motor impairment/no. of used animals (neurotoxicity (rotarod); mouse, in vivo, 100 mg/kg): 8/8; TOX, No. of animals exhibiting motor impairment/no. of used animals (neurotoxicity (rotarod); mouse, in vivo, 300 mg/kg): 4/4
Cc1cccc(OCCNC(C)(C)CO)c1C [Compound 3, 2N-[(2,3-dimethylphenoxy)ethyl]amino-2-methyl-1-propanol]	–	–	7/8	4/4	responders at 100 mg/kg ([1]; Mus musculus, dose 100 mg/kg b.w., read-out: MES, No. of protected animals/No. of used animals (converted)): 66.7%
Cc1ccc(C)c(OCCNCC(C)O)c1 (centres unmarked) [Compound 5, R,S-1N-[(2,5-dimethylphenoxy)ethyl]amino-2-propanol]	–	3/3	–	–	TOX, No. of animals exhibiting motor impairment/no. of used animals (neurotoxicity (rotarod); mouse, in vivo, 300 mg/kg): 4/4
Cc1ccc(C)c(OCCNCC(O)c2ccccc2)c1 (centres unmarked) [Compound 9, R,S-2N-[(2,5-dimethylphenoxy)ethyl]amino-1-phenylethanol]	–	–	7/8	3/4	TOX, No. of animals exhibiting motor impairment/no. of used animals (neurotoxicity (rotarod); mice, dose 300 mg/kg b.w., time 4 h): 1/2
Cc1cc(Cl)ccc1OCCNCC(O)c1ccccc1 (centres unmarked) [Compound 37, R,S-2N-[(4-chlor-2-methylphenoxy)ethyl]amino-1-phenylethanol]	–	–	–	1/4	–
Cc1cccc(Cl)c1OCC(=O)NCCCC(=O)O [Compound 79, 4N-[(2-chlor-6-methylphenoxy)acetyl]aminobutyric acid]	1/4	–	–	–	–
Cc1cc(Cl)ccc1OCC(=O)NCC(O)c1ccccc1 (centres unmarked) [Compound 82, R,S-2N-[(4-chlor-2-methylphenoxy)acetyl]amino-1-phenylethanol]	4/4	–	–	–	TOX, No. of animals exhibiting motor impairment/no. of used animals (neurotoxicity (rotarod); mice, dose 100 mg/kg b.w., 0.5 h): 2/8; TOX, No. of animals exhibiting motor impairment/no. of used animals (neurotoxicity (rotarod); mice, dose 300 mg/kg b.w., 4 h): 1/2
Cc1cc(C)c(OCC(=O)NCC(O)c2ccccc2)c(C)c1 (centres unmarked) [Compound 83, R,S-2N-[(2,4,6-trimethylphenoxy)acetyl]amino-1-phenylethanol]	4/4	–	–	–	–
